# Experimental data from paper PMC5384453, “A multi-functional PEGylated gold(III) compound: potent anti-cancer properties and self-assembly into nanostructures for drug co-delivery” (Chemical Science, 2016).
# System: HCT116 cells
# Assay: Flow cytometric analysis of apoptosis with propidium iodide co-staining (Fig. S14, S15)
# Format: cell-based, human
# Settings: HCT116, 2 μM
# Experimental: with gold(III) complexes and FITC-annexin V staining. HCT116 (1×10 5 cells) and […]
# annexin-binding buffer solution. The cells were then incubated with FITC-annexin V […]
# at room temperature in dark for 15 min. The solution was then removed, and the cells were washed with annexin-binding buffer solution. Fluorescence images were then […]
# in ice and analyzed by flow cytometry immediately. […]
# staining and flow cytometry. […]
# atmosphere of 5% CO2. After reaching 80% confluency, the culture medium was […]
# of 5% CO2 for 45 min. The solution was then removed. The stained NCM460 cells […]
# the procedure described above. […]
# right fore of BALB/c nude mice. When the tumor volume reached 70 mm3 after […]
# propidium iodide staining. (b) Flow cytometric analysis of NCM460 […]
# annexin V and propidium iodide staining. (c) Flow cytometric analysis […]
# annexin V and propidium iodide staining.
substance,measurement,setting,value
[Au(TPP–COO–PEG5000–OCH3)]Cl [Compound 1],"apoptotic cells (Q4 region, corrected)",24 h,35.83%
same,"late apoptotic events (Q2 region, corrected)",24 h,1.96%
same,"apoptotic cells (Q4 region, corrected)",36 h,43.83%
same,"late apoptotic events (Q2 region, corrected)",36 h,10.6%
